Data: patent US6454951B1, “Photosensitive composition” (priority 1996, dated 2002)

Columns and labels:
Vibrio anguillarum = assay: Photo-inactivation of bacteria by visible light irradiation (cell survival); format: cell-based; settings: in words
Escherichia coli = assay: as above; settings: in words

Substance: Meso-di(N-methyl-4-pyridyl)diphenylporphine [Di(4-N-MPy)Ph2P]
- Effect of washing operations on photosensitizing efficiency (Vibrio anguillarum; Gram-negative bacteria, FIG. 1, visible light): less sensitive to washing and retains a high photoactivity
- Photo-inactivation compared with T4MPyP (Vibrio anguillarum; Vibrio anguillarum, visible light): more rapid and more intense photo-inactivation
- Photo-inactivation compared with T4MPyP (Escherichia coli): more rapid and more intense photo-inactivation
